Tested on: primary hypertension patients (systolic pressure ≧160 mmHg)
Assay: Clinical use in primary hypertension patients, 8-week treatment
Format: in vivo, human
Conditions: after 8-week treatment, levamlodipine 5.0 mg/d, chlorthalidone 25.0 mg/d; for Edema Incidence / Hypokalemia Incidence: combined 2.5 mg/d and 12.5 mg/d; for Decrease of Systolic Pressure: combined levamlodipine 2.5 mg/d and chlorthalidone 12.5 mg/d, 30 patients each
Description: The selected primary hypertension patients (with a systolic pressure ≧160 mmHg) were divided into 3 groups of 30 patients each, the levamlodipine group was given levamlodipine at 5.0 mg/d; the chlorthalidone group was given chlorthalidone at 25.0 mg/d; and the combined administration group was given levamlodipine at 2.5 mg/d and chlorthalidone at 12.5 mg/d. After 8-week treatment, the decease of the systolic pressure, the edema incidence, and the hypokalemia incidence were observed.

Structure (SMILES)	Edema Incidence [%]	Hypokalemia Incidence [%]	Decrease of Systolic Pressure [mmHg]
NS(=O)(=O)c1cc(C2(O)NC(=O)c3ccccc32)ccc1Cl (stereo not drawn) [Chlorthalidone, 5(2,3-dihydro-1-hydroxy-3-oxo-1H-isoindol-1-yl)-2-chlorobenzenesulfonamide]	0	20.3	20.5 ± 8.5
CCOC(=O)C1=C(COCCN)NC(C)=C(C(=O)OC)[C@@H]1c1ccccc1Cl [Levamlodipine, 3-ethyl-5-methyl-2-(2-aminoethoxymethyl)-4-(2-chlorophenyl)-1,4-dihydro-6-methyl-3,5-pyridine dicarboxylate]	10	0	22.7 ± 7.8

Reference: patent publication US20120041035A1, “LEVAMLODIPINE COMPOUND PHARMACEUTICAL COMPOSITION” (SHIHUIDA PHARMACEUTICALS GROUP (JILIN) LTD, priority 2010, published 2012)
